In patent US20230312578A1, “6H-INDOLO[2,3-B]QUINOXALINE DERIVATIVES USEFUL IN THERAPY” (Vironova Medical AB, priority 2020, published 2023):

Assays:
Assay type in all cases: cell-based
786-0 = experiment: Human tumor cell line growth assay (SRB); conditions: Renal, 786-0, 48 h
[1] = Human tumor cell line growth assay (SRB); conditions: human, SNB-19 cells (CNS), SNB-19, 48 h, read-out: LC50
SNB-19 = experiment: Human tumor cell line growth assay (SRB); conditions: Homo sapiens; CNS, SNB-19, 48 h
[2] = Human tumor cell line growth assay (SRB); conditions: human, MOLT-4 cells (leukemia), MOLT-4, 48 h, read-out: LC50
MOLT-4 = experiment: Human tumor cell line growth assay (SRB); conditions: Homo sapiens; Leukemia, MOLT-4, 48 h
[3] = Human tumor cell line growth assay (SRB); conditions: human, HOP-62 cells (NSCLC), HOP-62, 48 h, read-out: LC50
HOP-62 = experiment: Human tumor cell line growth assay (SRB); conditions: Homo sapiens; NSCLC, HOP-62, 48 h
[4] = Human tumor cell line growth assay (SRB); conditions: human, SNB-75 cells (CNS), SNB-75, 48 h
SNB-75 = experiment: Human tumor cell line growth assay (SRB); conditions: Homo sapiens; CNS, SNB-75, 48 h
[5] = Human tumor cell line growth assay (SRB); conditions: human, COLO 205 cells (colon), COLO 205, 48 h, read-out: LC50
COLO 205 = experiment: Human tumor cell line growth assay (SRB); conditions: Homo sapiens; Colon, COLO 205, 48 h
BT-549 = experiment: Human tumor cell line growth assay (SRB); conditions: Breast, BT-549, 48 h; for CC50: read-out: LC50 (the source's name)
[6] = Human tumor cell line growth assay (SRB); conditions: human, SK-MEL-5 cells (melanoma), SK-MEL-5, 48 h
SK-MEL-5 = experiment: Human tumor cell line growth assay (SRB); conditions: Homo sapiens; Melanoma, SK-MEL-5, 48 h
[7] = Human tumor cell line growth assay (SRB); conditions: human, IGR-OV1 cells (ovarian), IGR-OV1, 48 h, read-out: LC50
IGR-OV1 = experiment: Human tumor cell line growth assay (SRB); conditions: Homo sapiens, IGROV-1; Ovarian, IGR-OV1, 48 h
CAKI-1 = experiment: Human tumor cell line growth assay (SRB); conditions: Renal, CAKI-1, 48 h; for CC50: read-out: LC50 (the source's name)
T-47D = experiment: Human tumor cell line growth assay (SRB); conditions: T47D, Breast, 48 h; for CC50: read-out: LC50 (the source's name)
CCRF-CEM = experiment: Human tumor cell line growth assay (SRB); conditions: Leukemia, 48 h; for CC50: read-out: LC50 (the source's name)
[8] = Human tumor cell line growth assay (SRB); conditions: human, NCI-H322M cells (NSCLC), read-out: LC50
NCI-H322M = experiment: Human tumor cell line growth assay (SRB); conditions: Homo sapiens, NSCLC, 48 h
[9] = Human tumor cell line growth assay (SRB); conditions: human, SR cells (leukemia), read-out: LC50
SR = experiment: Human tumor cell line growth assay (SRB); conditions: Homo sapiens, Leukemia, 48 h
RPMI-8226 = experiment: Human tumor cell line growth assay (SRB); conditions: Homo sapiens; Leukemia, RPMI-8226, 48 h
[10] = Human tumor cell line growth assay (SRB), summary over the panel; conditions: human, human tumor cell line panel (most cell lines of the panel); for most cell lines of the panel; read-out: LC50
[11] = Human tumor cell line growth assay (SRB); conditions: human, RPMI-8226 cells (leukemia), RPMI-8226, 48 h, read-out: LC50

SMILES	GI50 (786-0)	CC50 at 48 h [1]	GI50 (SNB-19)	CC50 at 48 h [2]	GI50 (MOLT-4)	CC50 at 48 h [3]	GI50 (HOP-62)	LC50 (concentration killing 50% of cells) at 48 h [4]	GI50 (SNB-75)	GI50 (COLO 205)	GI50 (BT-549)	CC50 (BT-549)	LC50 (concentration killing 50% of tumour cells) at 48 h [6]	GI50 (SK-MEL-5)	CC50 at 48 h [7]	GI50 (IGR-OV1)	GI50 (CAKI-1)	CC50 (CAKI-1)	GI50 (T-47D)	GI50 (CCRF-CEM)	also measured
Cc1cc2nc3c4ccccc4n(CCN(C)C)c3nc2cc1C [B220, 2-(2,3-dimethyl-6H-indolo [2,3-b]quinoxalin-6-yl)-N,N-dimethylethanamine, reference compound]	1970 nM	68600 nM	2330 nM	95100 nM	555 nM	> 100000 nM	1110 nM	80200 nM	1280 nM	1290 nM	2070 nM	28700 nM	12000 nM	1700 nM	72400 nM	1280 nM	982 nM	> 100000 nM	2800 nM	1990 nM	LC50 (786-0): 62000 nM; CC50 at 48 h [5]: 41000 nM; CC50 (T-47D): > 100000 nM; CC50 (CCRF-CEM): > 100000 nM; CC50 at 48 h [8]: 31200 nM; GI50 (NCI-H322M): 1860 nM
COc1ccc2c(c1)c1nc3cc(C)c(C)cc3nc1n2CCN(C)C [JBA-094, 2-(9-methoxy-2,3-dimethyl-6H-indolo[2,3-b]quinoxalin-6-yl)-N,N-dimethylethanamine]	1040 nM	6340 nM	719 nM	96000 nM	420 nM	> 100000 nM	1190 nM	23800 nM	1230 nM	561 nM	1650 nM	7090 nM	5580 nM	1660 nM	5410 nM	396 nM	541 nM	4930 nM	1320 nM	795 nM	LC50 (786-0): 6520 nM; CC50 at 48 h [9]: > 100000 nM; GI50 (SR): 409 nM; CC50 (T-47D): > 100000 nM; GI50 (RPMI-8226): 640 nM; CC50 (CCRF-CEM): > 100000 nM; CC50 at 48 h [8]: 6410 nM; GI50 (NCI-H322M): 778 nM
Cc1cc2nc3c4cc([N+](=O)[O-])ccc4n(CCN(C)C)c3nc2cc1C [JBA-185, 2-(2,3-dimethyl-9-nitro-6H-indolo[2,3-b]quinoxalin-6-yl)-N,N-dimethylethanamine]	757 nM	> 100000 nM	493 nM	> 100000 nM	368 nM	> 100000 nM	507 nM	5450 nM	447 nM	360 nM	1950 nM	> 100000 nM	4770 nM	1040 nM	> 100000 nM	357 nM	251 nM	7480 nM	499 nM	642 nM	CC50 at 48 h [10]: > 100000 nM; LC50 (786-0): 9560 nM; CC50 at 48 h [5]: > 100000 nM; CC50 at 48 h [9]: > 100000 nM; GI50 (SR): 250 nM; CC50 (T-47D): > 100000 nM; CC50 at 48 h [11]: > 100000 nM; GI50 (RPMI-8226): 389 nM; CC50 (CCRF-CEM): > 100000 nM; CC50 at 48 h [8]: > 100000 nM; GI50 (NCI-H322M): 467 nM
Cc1cc2nc3c4cc(N)ccc4n(CCN(C)C)c3nc2cc1C [JBD-136, 6-(2-(dimethylamino)ethyl)-2,3-dimethyl-6H-indolo [2,3-b]quinoxalin-9-amine]	1520 nM	> 100000 nM	767 nM	71900 nM	366 nM	> 100000 nM	1140 nM	24800 nM	1250 nM	418 nM	1780 nM	27900 nM	5720 nM	1690 nM	> 100000 nM	596 nM	427 nM	85500 nM	2260 nM	862 nM	LC50 (786-0): 38500 nM; CC50 at 48 h [5]: 83600 nM; CC50 at 48 h [9]: > 100000 nM; GI50 (SR): 239 nM; CC50 (T-47D): > 100000 nM; CC50 at 48 h [11]: 95200 nM; GI50 (RPMI-8226): 740 nM; CC50 (CCRF-CEM): 76900 nM; CC50 at 48 h [8]: > 100000 nM; GI50 (NCI-H322M): 771 nM
Cc1cc2nc3c4cc(O)ccc4n(CCN(C)C)c3nc2cc1C [JBD-139, 6-(2-(dimethylamino)ethyl)-2,3-dimethyl-6H-indolo [2,3-b]quinoxalin-9-ol]	707 nM	> 100000 nM	423 nM	> 100000 nM	359 nM	> 100000 nM	569 nM	> 100000 nM	214 nM	470 nM	1840 nM	> 100000 nM	5330 nM	1450 nM	98200 nM	392 nM	259 nM	5310 nM	686 nM	468 nM	CC50 at 48 h [5]: > 100000 nM; CC50 at 48 h [9]: > 100000 nM; GI50 (SR): 289 nM; GI50 (RPMI-8226): 366 nM; CC50 (CCRF-CEM): > 100000 nM; CC50 at 48 h [8]: > 100000 nM; GI50 (NCI-H322M): 516 nM
